According to patent US20100311133A1, “ELECTRODE, ENZYME SENSOR USING THE ELECTRODE, FUEL BATTERY, ELECTRONIC DEVICE, AND METHOD FOR DECOMPOSING POLYOL” (SONY CORPORATION, priority 2007, published 2010):

How the values were obtained:
Alcohol dehydrogenase = target: T1, Alcohol dehydrogenase (Saccharomyces cerevisiae, UniProt P00330); assay: Amount of NADH generated from polyol substrates by alcohol dehydrogenase (Example 3); format: biochemical, yeast; conditions: substrate 100 mmol/L; NAD+ 1.3 mg/mL; enzyme 2.5 μ/mL; 25° C.; relative to alcohol dehydrogenase with ethylene glycol = 100
T1 construct: purchased Wako Pure Chemical Industries, Ltd
T1 sequence (P00330 1-348): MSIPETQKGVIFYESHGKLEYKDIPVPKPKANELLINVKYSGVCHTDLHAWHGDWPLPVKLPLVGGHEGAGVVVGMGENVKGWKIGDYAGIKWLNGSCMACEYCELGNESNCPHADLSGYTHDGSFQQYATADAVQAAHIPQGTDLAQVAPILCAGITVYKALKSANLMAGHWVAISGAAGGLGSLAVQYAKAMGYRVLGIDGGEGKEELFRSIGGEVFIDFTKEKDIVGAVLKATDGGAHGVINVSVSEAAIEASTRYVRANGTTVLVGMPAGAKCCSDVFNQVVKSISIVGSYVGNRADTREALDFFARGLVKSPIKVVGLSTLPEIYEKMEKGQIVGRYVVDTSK
Text: (§1) To be more specific, an alcohol dehydrogenase and an aldehyde reductase were allow to act with each substrate and the amount of NADH generated was comparatively investigated.
(§2) Individual relative values are indicated as relative values by assuming the amount of NADH generated from action of the alcohol dehydrogenase with ethylene glycol to be 100.

Aldehyde reductase = assay: Amount of NADH generated from polyol substrates by aldehyde reductase (Example 3); format: biochemical, Candida; conditions: substrate 100 mmol/L; NAD+ 1.3 mg/mL; enzyme 2.5 μ/mL; 25° C.; relative to alcohol dehydrogenase with ethylene glycol = 100
Text: as §1, §2

Amount of reduced coenzyme generated (relative value %), Alcohol dehydrogenase (Alcohol dehydrogenase) [%]	Amount of reduced coenzyme generated (relative value %), Aldehyde reductase (Aldehyde reductase) [%]	Compound
6.0	50	OC[C@@H](O)[C@@H](O)CO [Erythritol, erythritol]
0.6	7.0	OCC(O)CO [Glycerol, glycerol]
0.4	34	OC[C@@H](O)[C@H](O)[C@@H](O)CO [Xylitol, xylitol]

Compound	Amount of reduced coenzyme generated (relative value %), Alcohol dehydrogenase (Alcohol dehydrogenase) [%]	Amount of reduced coenzyme generated (relative value %), Aldehyde reductase (Aldehyde reductase) [%]
OCCO [Ethylene glycol, ethylene glycol]	100	4.0
OC[C@@H](O)[C@@H](O)[C@H](O)[C@@H](O)CO [Sorbitol, sorbitol]	0.7	100
